Measurements as given in patent publication US8440652B2, “MST1 kinase inhibitors and methods of their use” (Lexicon Pharmaceuticals, Inc., priority 2011, dated 2013).
Read-outs that look alike come from different tables or passages of the source.

Target: T1, MST1 (Homo sapiens, UniProt Q13043)
T1 sequence (Q13043 1-487): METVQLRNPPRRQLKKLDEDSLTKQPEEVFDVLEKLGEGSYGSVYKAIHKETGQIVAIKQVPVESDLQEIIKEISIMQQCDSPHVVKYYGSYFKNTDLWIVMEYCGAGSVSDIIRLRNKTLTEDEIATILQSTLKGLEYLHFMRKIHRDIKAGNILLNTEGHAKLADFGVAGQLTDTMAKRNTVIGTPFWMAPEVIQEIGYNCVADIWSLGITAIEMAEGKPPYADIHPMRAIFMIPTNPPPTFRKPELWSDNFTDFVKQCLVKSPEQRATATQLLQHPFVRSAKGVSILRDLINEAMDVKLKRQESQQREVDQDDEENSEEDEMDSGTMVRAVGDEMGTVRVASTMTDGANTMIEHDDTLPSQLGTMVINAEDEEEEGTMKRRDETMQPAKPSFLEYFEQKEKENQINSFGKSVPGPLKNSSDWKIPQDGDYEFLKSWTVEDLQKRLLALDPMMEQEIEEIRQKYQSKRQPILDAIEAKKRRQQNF
Experiment: In vitro measurement of MST1 inhibition (Z′-Lyte kinase assay)
Type: biochemical

[1] = 1 μM ATP, read-out: IC50 (μM) 1 μM ATP
[2] = 50 μM ATP, read-out: IC50 (μM) 50 μM ATP

IC50 [1] [µM]	IC50 [2] [µM]	Compound
< 0.01	< 0.01	CN(C1CC1)S(=O)(=O)c1ccc(-c2cnc(N)c(-c3ccc4c(c3)CCCNC4=O)c2)cc1 [4-(6-amino-5-(1-oxo-2,3,4,5-tetrahydro-1H-benzo[c]azepin-7-yl)pyridin-3-yl)-N-cyclopropyl-N-methylbenzenesulfonamide]
< 0.01	< 0.01	Nc1ncc(-c2ccc(S(=O)(=O)NC3CC3)cc2)cc1-c1ccc2c(c1)CCCNC2=O [4-(6-amino-5-(1-oxo-2,3,4,5-tetrahydro-1H-benzo[c]azepin-7-yl)pyridin-3-yl)-N-cyclopropylbenzenesulfonamide]
< 0.01	< 0.01	CN(C1CC1)S(=O)(=O)c1ccc(-c2cnc(N)c(-c3ccc4c(c3)C3(CC3)CNC4=O)c2)cc1 [4-(6-amino-5-(1′-oxo-2′,3′-dihydro-1′H-spiro[cyclopropane-1,4′-isoquinolin]-6′-yl)pyridin-3-yl)-N-cyclopropyl-N-methylbenzenesulfonamide]
< 0.01	< 0.01	Nc1ncc(-c2ccc(S(=O)(=O)NC3CC3)cc2)cc1-c1ccc2c(c1)C1(CC1)CNC2=O [4-(6-amino-5-(1′-oxo-2′,3′-dihydro-1′H-spiro[cyclopropane-1,4′-isoquinolin]-6′-yl)pyridin-3-yl)-N-cyclopropylbenzenesulfonamide]
< 0.15	< 0.05	CN(C1CC1)S(=O)(=O)c1ccc(-c2cnc(N)c(-c3ccc4c(c3)CCN(CCC#N)C4=O)c2)cc1 [4-(6-amino-5-(2-(2-cyanoethyl)-1-oxo-1,2,3,4-tetrahydroisoquinolin-6-yl)pyridin-3-yl)-N-cyclopropyl-N-methylbenzenesulfonamide]
< 0.15	< 0.05	CN(C1CC1)S(=O)(=O)c1ccc(-c2cnc(N)c(-c3ccc4c(c3)CCCCC(=O)N4)c2)cc1 [4-(6-amino-5-(2-oxo-1,2,3,4,5,6-hexahydrobenzo[b]azocin-8-yl)pyridin-3-yl)-N-cyclopropyl-N-methylbenzenesulfonamide]
	< 0.15	CCN(CC)S(=O)(=O)c1ccc(-c2cnc(N)c(-c3ccc4c(c3)CCCC(=O)N4)c2)cc1 [4-(6-amino-5-(2-oxo-2,3,4,5-tetrahydro-1H-benzo[b]azepin-7-yl)pyridin-3-yl)-N,N-diethylbenzenesulfonamide]
< 0.01	< 0.01	CN(C1CC1)S(=O)(=O)c1ccc(-c2cnc(N)c(-c3ccc4c(c3)C(C)(C)NC4=O)c2)cc1 [4-(6-amino-5-(3,3-dimethyl-1-oxoisoindolin-5-yl)pyridin-3-yl)-N-cyclopropyl-N-methylbenzenesulfonamide]
	< 0.15	CCN(CC)S(=O)(=O)c1ccc(-c2cnc(N)c(-c3ccc4c(O)n[nH]c4c3)c2)cc1 [4-(6-amino-5-(3-hydroxy-1H-indazol-6-yl)pyridin-3-yl)-N,N-diethylbenzenesulfonamide]
	< 0.15	CCN(CC)S(=O)(=O)c1ccc(-c2cnc(N)c(-c3ccc4c(=O)[nH]oc4c3)c2)cc1 [4-(6-amino-5-(3-oxo-2,3-dihydrobenzo[d]isoxazol-6-yl)pyridin-3-yl)-N,N-diethylbenzenesulfonamide]
< 0.01	< 0.01	CN(C1CC1)S(=O)(=O)c1ccc(-c2cnc(N)c(-c3ccc4c(c3)C3(CC3)NC4=O)c2)cc1 [4-(6-amino-5-(3′-oxospiro[cyclopropane-1,1′-isoindolin]-6′-yl)pyridin-3-yl)-N-cyclopropyl-N-methylbenzenesulfonamide]
< 0.01	< 0.01	Nc1ncc(-c2ccc(S(=O)(=O)NC3CC3)cc2)cc1-c1ccc2c(c1)C1(CC1)NC2=O [4-(6-amino-5-(3′-oxospiro[cyclopropane-1,1′-isoindolin]-6′-yl)pyridin-3-yl)-N-cyclopropylbenzenesulfonamide]
< 0.01	< 0.01	CC1(C)CNC(=O)c2ccc(-c3cc(-c4ccc(S(=O)(=O)NC5CC5)cc4)cnc3N)cc21 [4-(6-amino-5-(4,4-dimethyl-1-oxo-1,2,3,4-tetrahydroisoquinolin-6-yl)pyridin-3-yl)-N-cyclopropylbenzenesulfonamide]
< 0.05	< 0.01	CCN(CC)S(=O)(=O)c1ccc(-c2cnc(N)c(-c3ccc4c(O)ncnc4c3)c2)cc1 [4-(6-amino-5-(4-hydroxyquinazolin-7-yl)pyridin-3-yl)-N,N-diethylbenzenesulfonamide]
< 0.05	< 0.01	CCNS(=O)(=O)c1ccc(-c2cnc(N)c(-c3ccc4c(O)ncnc4c3)c2)cc1 [4-(6-amino-5-(4-hydroxyquinazolin-7-yl)pyridin-3-yl)-N-ethylbenzenesulfonamide]
< 0.01	< 0.01	CN(C1CC1)S(=O)(=O)c1ccc(-c2cnc(N)c(-c3ccc4c(c3)NCCNC4=O)c2)cc1 [4-(6-amino-5-(5-oxo-2,3,4,5-tetrahydro-1H-benzo[e][1,4]diazepin-8-yl)pyridin-3-yl)-N-cyclopropyl-N-methylbenzenesulfonamide]

IC50 [1] [µM]	IC50 [2] [µM]	Compound
< 0.01	< 0.01	CN(C1CC1)S(=O)(=O)c1ccc(-c2cnc(N)c(-c3ccc4c(c3)OCCNC4=O)c2)cc1 [4-(6-amino-5-(5-oxo-2,3,4,5-tetrahydrobenzo[f][1,4]oxazepin-8-yl)pyridin-3-yl)-N-cyclopropyl-N-methylbenzenesulfonamide]
< 0.01	< 0.01	Nc1ncc(-c2ccc(S(=O)(=O)NC3CC3)cc2)cc1-c1ccc2c(c1)OCCNC2=O [4-(6-amino-5-(5-oxo-2,3,4,5-tetrahydrobenzo[f][1,4]oxazepin-8-yl)pyridin-3-yl)-N-cyclopropylbenzenesulfonamide]
< 0.05	< 0.01	CCN(C)S(=O)(=O)c1ccc(-c2cnc(N)c(-c3cc4c(s3)C(=O)NCC4)c2)cc1 [4-(6-amino-5-(7-oxo-4,5,6,7-tetrahydrothieno[2,3-c]pyridin-2-yl)pyridin-3-yl)-N-ethyl-N-methylbenzenesulfonamide]
< 0.01	< 0.01	CN(C1CC1)S(=O)(=O)c1ccc(-c2cnc(N)c(-c3cc4c(cn3)C(=O)NCC4)c2)cc1 [4-(6-amino-5-(8-oxo-5,6,7,8-tetrahydro-2,7-naphthyridin-3-yl)pyridin-3-yl)-N-cyclopropyl-N-methylbenzenesulfonamide]
< 0.05	< 0.01	N#Cc1ccc(-c2cnc(N)c(-c3cc4c(cn3)C(=O)NCC4)c2)cc1 [4-(6-amino-5-(8-oxo-5,6,7,8-tetrahydro-2,7-naphthyridin-3-yl)pyridin-3-yl)benzonitrile]
< 0.05	< 0.01	CNC(=O)N1CCc2cc(-c3nc(-c4ccc(S(=O)(=O)N(C)C5CC5)cc4)cnc3N)ccc21 [5-(3-amino-6-(4-(N-cyclopropyl-N-methylsulfamoyl)phenyl)pyrazin-2-yl)-N-methylindoline-1-carboxamide]
< 0.05	< 0.01	CC1(C#N)CCc2cc(-c3cnc(N)c(-c4ccc5c(c4)CCNC5=O)n3)ccc21 (stereo not shown) [5-(5-amino-6-(1-oxo-1,2,3,4-tetrahydroisoquinolin-6-yl)pyrazin-2-yl)-1-methyl-2,3-dihydro-1H-indene-1-carbonitrile]
< 0.05	< 0.01	CN(C1CC1)S(=O)(=O)c1ccc(-c2cnc(N)c(-c3ccc4c(c3)CCNC4=O)n2)cn1 [5-(5-amino-6-(1-oxo-1,2,3,4-tetrahydroisoquinolin-6-yl)pyrazin-2-yl)-N-cyclopropyl-N-methylpyridine-2-sulfonamide]
< 0.15	< 0.01	CC1(C#N)CCc2cc(-c3cnc(N)c(-c4ccc5c(c4)CCNC5=O)c3)ccc21 (stereo not shown) [5-(6-amino-5-(1-oxo-1,2,3,4-tetrahydroisoquinolin-6-yl)pyridin-3-yl)-1-methyl-2,3-dihydro-1H-indene-1-carbonitrile]
< 0.15	< 0.05	Nc1ncc(-c2ccc(C(=O)NCC(F)(F)F)s2)cc1-c1ccc2c(c1)CCNC2=O [5-(6-amino-5-(1-oxo-1,2,3,4-tetrahydroisoquinolin-6-yl)pyridin-3-yl)-N-(2,2,2-trifluoroethyl)thiophene-2-carboxamide]
< 0.05	< 0.01	CCN(C)S(=O)(=O)c1ccc(-c2cnc(N)c(-c3ccc4c(c3)CCNC4=O)c2)s1 [5-(6-amino-5-(1-oxo-1,2,3,4-tetrahydroisoquinolin-6-yl)pyridin-3-yl)-N-ethyl-N-methylthiophene-2-sulfonamide]
< 0.05	< 0.01	Nc1ncc(-c2ccc3c(c2)CNS3(=O)=O)cc1-c1ccc2c(c1)CCNC2=O [6-(2-amino-5-(1,1-dioxido-2,3-dihydrobenzo[d]isothiazol-5-yl)pyridin-3-yl)-3,4-dihydroisoquinolin-1(2H)-one]
	< 0.05	CN(C)c1nc(-c2cnc(N)c(-c3ccc4c(c3)CCNC4=O)c2)cs1 [6-(2-amino-5-(2-(dimethylamino)thiazol-4-yl)pyridin-3-yl)-3,4-dihydroisoquinolin-1(2H)-one]
< 0.05	< 0.05	Nc1ncc(-c2ccc3c(c2)CC(=O)N3)cc1-c1ccc2c(c1)CCNC2=O [6-(2-amino-5-(2-oxoindolin-5-yl)pyridin-3-yl)-3,4-dihydroisoquinolin-1(2H)-one]
< 0.05	< 0.01	CN(C)C(C)(C)c1ccc(-c2cnc(N)c(-c3ccc4c(c3)CCNC4=O)c2)cc1 [6-(2-amino-5-(4-(2-(dimethylamino)propan-2-yl)phenyl)pyridin-3-yl)-3,4-dihydroisoquinolin-1(2H)-one]
